Test results: patent publication US20260027125A1, “AN ANTIBACTERIAL PARENTERAL FORMULATION AND METHODS THEREOF” (BUGWORKS RESEARCH INDIA PVT. LTD., priority 2022, published 2026)

Key:
[1] = counter ion selected for salt screening; cited from earlier work
[2] = Solubility study without acetic acid; format: physicochemical; settings: aqueous with cosolvent or surfactant or cyclodextrin, combination of ascorbic acid and lactic acid, read-out: solubilized at a concentration of
[3] = Solubility of free amine in solvents; format: physicochemical
[4] = pKa (selection of counterions); format: physicochemical; settings: weakly basic nature of the compound

Structure (SMILES) | pKa (first value) [1] | solubility [2] [mg/mL] | solubility in solvents [3] | pKa [4]
CCS(=O)(=O)O [ethane sulfonic acid] | 1.68 | – | – | –
Cn1c(=O)ccc2ccc(F)c(CCNC[C@H]3CN(c4cnc5c(n4)NC(=O)CO5)C(=O)O3)c21 [compound of Formula (I), (S)-6-(5-(((2-(7-fluoro-1-methyl-2-oxo-1,2-dihydroquinolin-8-yl)ethyl)amino)methyl)-2-oxooxazolidin-3-yl)-2H-pyrazino[2,3-b][1,4]oxazin-3(4H)-one] | – | 20 | soluble only in dichloromethane and methanol (1:1) mixture | ~6.81
